From US20260325533A1, “CDK INHIBITOR COMPOUNDS” (ALEKSIA THERAPEUTICS, INC., priority 2023, published 2026)
Where two headings read alike, the source gives them in different places. One block for each compound: values may come before it.

Tests used:
Type in all cases: biochemical
[1] = target: CDK2/CCNE1 (Homo sapiens, UniProt P24941); assay: CDK2 homogeneous time-resolved fluorescence (HTRF) kinase assay; details: CDK2/CCNE
In short: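 3 nM CDK2/CCNE1 was preincubated with compound for 20 min at 23 °C in HEPES buffer (pH not stated), then reacted 60 min with 1 mM ATP and 50 nM ULight-4E-BP1 (Thr37/46) peptide. After EDTA stop, Eu-anti-phospho-4E-BP1 antibody (2 nM) was added for 60 min and TR-FRET read at 665 nm.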

[2] = target: CDK1/CCNB1 (Homo sapiens, UniProt P06493); assay: CDK1 homogeneous time-resolved fluorescence (HTRF) kinase assay; details: CDK1/CCNB
In short: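 High-ATP (1 mM) HTRF assay with 0.5 nM CDK1/cyclin B1 and 50 nM ULight-4E-BP1 (Thr37/46) substrate, 60 min at 23 °C after 20-min compound preincubation. IC50 values come from dose-response curves.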

[3] = target: CDK4/CCND3 (Homo sapiens, UniProt P11802); assay: CDK4 homogeneous time-resolved fluorescence (HTRF) kinase assay; details: CDK4/CCND
In short: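 Compounds were preincubated with 1.5 nM CDK4/CCND3 for 20 min at 23 °C in HEPES buffer (pH not given), then reacted 60 min with 1 mM ATP and 50 nM ULight-4E-BP1 (Thr37/46) peptide. EDTA stop, Eu-anti-phospho-4E-BP1 detection; 665/615 nm ratio; IC50 from 11-point half-log titrations from 10 μM.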

[4] = target: CDK6/CCND1 (Homo sapiens, UniProt Q00534); assay: CDK6 homogeneous time-resolved fluorescence (HTRF) kinase assay; details: CDK6/CCND
In short: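 1 nM enzyme, 1 mM ATP, 50 nM ULight-4E-BP1 (Thr37/46) peptide, 1% DMSO; 20 min compound preincubation, 60 min reaction, 23 °C. EDTA stop, 2 nM Eu-anti-phospho-4E-BP1 antibody 60 min. TR-FRET 665 nm (or 665/615 ratio); IC50 from 11-point half-log titration, top 10 μM.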

[5] = >250 nM marked x, read-out: CDK1/CCNB IC50 >250 nM
[6] = >250 nM marked x, read-out: CDK4/CCND IC50 >250 nM
[7] = >250 nM marked x, read-out: CDK6/CCND IC50 >250 nM
[8] = x = IC50 <25 nM, read-out: CDK2/CCNE IC50 (<25 nM)
[9] = x = IC50 25-250 nM, read-out: CDK1/CCNB IC50 (25-250 nM)
[10] = x = IC50 25-250 nM, read-out: CDK4/CCND IC50 (25-250 nM)
[11] = x = IC50 25-250 nM, read-out: CDK6/CCND IC50 (25-250 nM)
[12] = <25 nM, read-out: CDK2/CCNE IC50 <25 nM
[13] = x = IC50 25-250 nM, read-out: CDK2/CCNE IC50 (25-250 nM)
[14] = x = IC50 >250 nM, read-out: CDK1/CCNB IC50 (>250 nM column)
[15] = x = IC50 >250 nM, read-out: CDK4/CCND IC50 (>250 nM column)
[16] = x = IC50 >250 nM, read-out: CDK6/CCND IC50 (>250 nM column)
[17] = 25-250 nM marked x, read-out: CDK1/CCNB IC50 25-250 nM
[18] = 25-250 nM marked x, read-out: CDK4/CCND IC50 25-250 nM
[19] = 25-250 nM marked x, read-out: CDK6/CCND IC50 25-250 nM
[20] = 25-250 nM, read-out: CDK2/CCNE IC50, 25-250 nM
[21] = >250 nM, read-out: CDK1/CCNB IC50 >250 nM
[22] = >250 nM, read-out: CDK4/CCND IC50, >250 nM
[23] = >250 nM, 1 mM ATP, read-out: CDK6/CCND IC50, >250 nM

CDK1/CCNB1, sequence (P06493 whole entry): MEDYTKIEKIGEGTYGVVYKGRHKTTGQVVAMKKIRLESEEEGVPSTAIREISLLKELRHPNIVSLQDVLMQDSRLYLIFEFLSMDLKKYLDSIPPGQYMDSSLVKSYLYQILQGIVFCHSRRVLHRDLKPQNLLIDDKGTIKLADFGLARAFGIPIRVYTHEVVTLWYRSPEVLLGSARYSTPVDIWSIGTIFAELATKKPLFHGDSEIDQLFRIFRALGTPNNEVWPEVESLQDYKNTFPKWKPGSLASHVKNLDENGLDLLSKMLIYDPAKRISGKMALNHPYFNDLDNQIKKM
CDK1/CCNB1, sequence (P14635 whole entry partner): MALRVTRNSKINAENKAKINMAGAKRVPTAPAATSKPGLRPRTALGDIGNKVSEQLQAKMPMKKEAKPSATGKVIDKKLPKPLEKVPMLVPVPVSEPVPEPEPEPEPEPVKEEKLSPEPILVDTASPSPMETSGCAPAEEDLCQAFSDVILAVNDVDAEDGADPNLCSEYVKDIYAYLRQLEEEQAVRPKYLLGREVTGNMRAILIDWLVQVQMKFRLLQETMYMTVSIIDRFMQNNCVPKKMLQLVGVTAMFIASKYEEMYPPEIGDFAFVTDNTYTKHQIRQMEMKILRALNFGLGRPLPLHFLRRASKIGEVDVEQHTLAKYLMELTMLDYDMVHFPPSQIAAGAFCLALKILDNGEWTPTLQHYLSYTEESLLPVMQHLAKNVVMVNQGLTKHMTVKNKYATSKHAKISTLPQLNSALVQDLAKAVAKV
CDK6/CCND1, sequence (Q00534 whole entry): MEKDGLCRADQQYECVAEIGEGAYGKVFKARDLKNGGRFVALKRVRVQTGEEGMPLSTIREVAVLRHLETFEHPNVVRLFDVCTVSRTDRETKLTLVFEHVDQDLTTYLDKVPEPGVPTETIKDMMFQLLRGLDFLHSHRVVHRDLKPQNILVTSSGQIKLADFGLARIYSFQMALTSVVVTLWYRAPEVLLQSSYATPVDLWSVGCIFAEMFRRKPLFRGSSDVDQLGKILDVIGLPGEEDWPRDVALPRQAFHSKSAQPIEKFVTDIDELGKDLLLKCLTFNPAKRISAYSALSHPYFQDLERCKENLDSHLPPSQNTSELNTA
CDK6/CCND1, sequence (P24385 whole entry partner): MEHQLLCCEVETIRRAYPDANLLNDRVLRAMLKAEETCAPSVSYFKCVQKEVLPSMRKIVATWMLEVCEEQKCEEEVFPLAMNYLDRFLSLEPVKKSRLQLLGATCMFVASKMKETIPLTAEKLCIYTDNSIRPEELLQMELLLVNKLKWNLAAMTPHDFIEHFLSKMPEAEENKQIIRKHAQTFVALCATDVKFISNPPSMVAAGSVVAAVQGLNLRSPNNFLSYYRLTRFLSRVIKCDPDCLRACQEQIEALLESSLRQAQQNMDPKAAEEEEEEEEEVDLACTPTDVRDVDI
CDK4/CCND3, sequence (P11802 whole entry): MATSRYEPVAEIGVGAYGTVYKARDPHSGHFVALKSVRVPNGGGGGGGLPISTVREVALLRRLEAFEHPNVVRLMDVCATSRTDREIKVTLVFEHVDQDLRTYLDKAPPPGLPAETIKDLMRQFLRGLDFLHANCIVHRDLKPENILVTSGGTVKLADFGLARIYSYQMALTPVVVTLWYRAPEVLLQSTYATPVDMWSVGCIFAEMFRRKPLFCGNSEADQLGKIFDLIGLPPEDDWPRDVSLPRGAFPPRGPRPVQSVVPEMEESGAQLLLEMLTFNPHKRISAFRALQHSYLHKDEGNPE
CDK4/CCND3, sequence (P30281 whole entry partner): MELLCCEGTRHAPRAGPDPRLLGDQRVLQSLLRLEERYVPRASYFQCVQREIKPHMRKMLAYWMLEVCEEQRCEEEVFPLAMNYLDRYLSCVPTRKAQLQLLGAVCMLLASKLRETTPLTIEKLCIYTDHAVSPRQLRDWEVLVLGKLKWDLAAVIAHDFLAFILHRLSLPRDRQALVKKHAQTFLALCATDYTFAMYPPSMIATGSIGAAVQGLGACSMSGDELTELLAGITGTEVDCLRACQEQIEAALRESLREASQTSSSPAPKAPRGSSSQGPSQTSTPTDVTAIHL

SMILES: Cc1c(-c2nccc3cnc(Nc4ccc(S(C)(=O)=O)cc4)cc23)ccc2nn(CCO)cc12 [Ex 206, 2-(4-methyl-5-(7-((4-(methylsulfonyl)phenyl)amino)-2,6-naphthyridin-1-yl)-2H-indazol-2-yl)ethan-1-ol]
IC50 ([1]; 25-250 nM marked x, read-out: CDK2/CCNE IC50 25-250 nM): 25 to 250 nM | IC50 [2, 5]: > 250 nM | IC50 [3, 6]: > 250 nM | IC50 [4, 7]: > 250 nM

SMILES: Cc1c(-c2nccc3cnc(Nc4ccc(S(C)(=O)=O)cc4)cc23)ccc2c1cnn2CC(C)(C)O (single isomer, unassigned) [Example 674, 2-methyl-1-(4-methyl-5-(7-((4-(methylsulfonyl)phenyl)amino)-2,6-naphthyridin-1-yl)-1H-indazol-1-yl)propan-2-ol]
IC50 [1, 8]: < 25 nM | IC50 [2, 9]: 25 to 250 nM | IC50 [3, 10]: 25 to 250 nM | IC50 [4, 11]: 25 to 250 nM

SMILES: CC1NCCc2cc(-c3nccc4cnc(Nc5ccc(S(C)(=O)=O)cc5)cc34)ccc21 (single isomer, unassigned) [Example 599, 5-(1-methyl-1,2,3,4-tetrahydroisoquinolin-6-yl)-N-(4-(methylsulfonyl)phenyl)-2,6-naphthyridin-3-amine]
IC50 [1, 13]: 25 to 250 nM | IC50 [2, 14]: > 250 nM | IC50 [3, 15]: > 250 nM | IC50 [4, 16]: > 250 nM

SMILES: C=CS(=O)(=O)N1CCC(Nc2cc3c(N4CCCCC4)nccc3cn2)CC1 [Example 3, 5-(piperidin-1-yl)-N-(1-(vinylsulfonyl)piperidin-4-yl)-2,6-naphthyridin-3-amine]
IC50 [1, 12]: < 25 nM | IC50 [2, 17]: 25 to 250 nM | IC50 [3, 18]: 25 to 250 nM | IC50 [4, 19]: 25 to 250 nM

SMILES: CS(=O)(=O)c1ccc(Nc2cc3c(C#Cc4cc(F)ncc4F)nccc3cn2)cc1 [Ex 872, 5-((2,5-difluoropyridin-4-yl)ethynyl)-N-(4-(methylsulfonyl)phenyl)-2,6-naphthyridin-3-amine]
IC50 [1, 20]: 25 to 250 nM | IC50 [2, 21]: > 250 nM | IC50 [3, 22]: > 250 nM | IC50 [4, 23]: > 250 nM

SMILES: Cc1c(-c2nccc3cnc(Nc4ccc(NS(=O)(=O)c5ccc(C(F)(F)F)nc5)cc4)cc23)ccc2c1cnn2CC(C)(C)O [Ex 778, N-(4-((5-(1-(2-hydroxy-2-methylpropyl)-4-methyl-1H-indazol-5-yl)-2,6-naphthyridin-3-yl)amino)phenyl)-6-(trifluoromethyl)pyridine-3-sulfonamide]
IC50 [1, 20]: 25 to 250 nM | IC50 [2, 21]: > 250 nM | IC50 [3, 22]: > 250 nM | IC50 [4, 23]: > 250 nM

SMILES: Cc1ccc(NS(=O)(=O)c2ccc(Nc3cc4c(-c5ccc6c(cnn6CC(O)(C(F)(F)F)C(F)(F)F)c5C)nccc4cn3)cc2)cc1C(C)(C)O [Example 708, N-(3-(2-hydroxypropan-2-yl)-4-methylphenyl)-4-((5-(4-methyl-1-(3,3,3-trifluoro-2-hydroxy-2-(trifluoromethyl)propyl)-1H-indazol-5-yl)-2,6-naphthyridin-3-yl)amino)benzenesulfonamide]
IC50 [1, 20]: 25 to 250 nM | IC50 [2, 21]: > 250 nM | IC50 [3, 22]: > 250 nM | IC50 [4, 23]: > 250 nM

SMILES: CS(=O)(=O)c1ccc(Nc2cc3c(C#Cc4cccnc4N)nccc3cn2)nc1 [Ex 419, 5-((2-aminopyridin-3-yl)ethynyl)-N-(5-(methylsulfonyl)pyridin-2-yl)-2,6-naphthyridin-3-amine]
IC50 [1, 13]: 25 to 250 nM | IC50 [2, 14]: > 250 nM | IC50 [3, 15]: > 250 nM | IC50 [4, 16]: > 250 nM

SMILES: COCc1cccc(-c2nccc3cnc(NC4CCN(S(C)(=O)=O)CC4)cc23)c1 [Ex 71, 5-(3-(methoxymethyl)phenyl)-N-(1-(methylsulfonyl)piperidin-4-yl)-2,6-naphthyridin-3-amine]
IC50 [1, 12]: < 25 nM | IC50 [2, 17]: 25 to 250 nM | IC50 [3, 18]: 25 to 250 nM | IC50 [4, 19]: 25 to 250 nM

SMILES: COc1ccc(NS(=O)(=O)c2ccc(Nc3cc4c(-c5ccc6c(cnn6CC(O)(C(F)(F)F)C(F)(F)F)c5C)nccc4cn3)cc2)nc1 [Ex 719, N-(5-methoxypyridin-2-yl)-4-((5-(4-methyl-1-(3,3,3-trifluoro-2-hydroxy-2-(trifluoromethyl)propyl)-1H-indazol-5-yl)-2,6-naphthyridin-3-yl)amino)benzenesulfonamide]
IC50 [1, 20]: 25 to 250 nM | IC50 [2, 21]: > 250 nM | IC50 [3, 22]: > 250 nM | IC50 [4, 23]: > 250 nM

Other lines, results leading:

IC50 [1, 12]: < 25 nM | IC50 [2, 5]: > 250 nM | IC50 [3, 6]: > 250 nM | IC50 [4, 7]: > 250 nM
SMILES: COc1cc(S(=N)(=O)C2CC2)ccc1Nc1cc2c(C#Cc3ccc4c(c3)NC(=O)C43CC3)nccc2cn1 (single isomer, unassigned) [Ex 278, 6'-((7-((4-(cyclopropanesulfonimidoyl)-2-methoxyphenyl)amino)-2,6-naphthyridin-1-yl)ethynyl)spiro[cyclopropane-1,3'-indolin]-2'-one]

IC50 [1, 13]: 25 to 250 nM | IC50 [2, 14]: > 250 nM | IC50 [3, 15]: > 250 nM | IC50 [4, 16]: > 250 nM
SMILES: N=S(=O)(c1ccc(Nc2cc3c(C#Cc4cccnc4N)nccc3cn2)cc1)C1CC1 (single isomer, unassigned) [Ex 417, (4-((5-((2-aminopyridin-3-yl)ethynyl)-2,6-naphthyridin-3-yl)amino)phenyl)(cyclopropyl)(imino)-l6-sulfanone]

IC50 [1, 13]: 25 to 250 nM | IC50 [2, 14]: > 250 nM | IC50 [3, 15]: > 250 nM | IC50 [4, 16]: > 250 nM
SMILES: CC1(C)C(=O)Nc2cc(C#Cc3nccc4cnc(Nc5ccc(S(C)(=O)=O)nc5)cc34)ccc21 [Ex 425, 3,3-dimethyl-6-((7-((6-(methylsulfonyl)pyridin-3-yl)amino)-2,6-naphthyridin-1-yl)ethynyl)indolin-2-one]

IC50 [1, 8]: < 25 nM | IC50 [2, 14]: > 250 nM | IC50 [3, 15]: > 250 nM | IC50 [4, 16]: > 250 nM
SMILES: CCC1(CC)C(=O)Nc2cc(C#Cc3nccc4cnc(Nc5ccc(S(=O)(=O)CC)cc5)cc34)ccc21 [Ex 430, 3,3-diethyl-6-((7-((4-(ethylsulfonyl)phenyl)amino)-2,6-naphthyridin-1-yl)ethynyl)indolin-2-one]

IC50 [1, 8]: < 25 nM | IC50 [2, 9]: 25 to 250 nM | IC50 [3, 10]: 25 to 250 nM | IC50 [4, 11]: 25 to 250 nM
SMILES: CC1(O)C(=O)Nc2cc(C#Cc3nccc4cnc(Nc5ccc(S(C)(=O)=O)cc5)cc34)ccc21 (single isomer, unassigned) [Example 347, 3-hydroxy-3-methyl-6-((7-((4-(methylsulfonyl)phenyl)amino)-2,6-naphthyridin-1-yl)ethynyl)indolin-2-one]

IC50 [1, 20]: 25 to 250 nM | IC50 [2, 21]: > 250 nM | IC50 [3, 22]: > 250 nM | IC50 [4, 23]: > 250 nM
SMILES: Cn1ncc2cc(C#Cc3nccc4cnc(Nc5ccc(S(C)(=O)=O)cc5)cc34)ccc21 [Ex 856, 5-((1-methyl-1H-indazol-5-yl)ethynyl)-N-(4-(methylsulfonyl)phenyl)-2,6-naphthyridin-3-amine]

IC50 [1, 8]: < 25 nM | IC50 [2, 14]: > 250 nM | IC50 [3, 15]: > 250 nM | IC50 [4, 16]: > 250 nM
SMILES: CCC1(CC)C(=O)Nc2cc(C#Cc3nccc4cnc(Nc5ccc(S(C)(=O)=O)cc5C)cc34)ccc21 [Example 395, 3,3-diethyl-6-((7-((2-methyl-4-(methylsulfonyl)phenyl)amino)-2,6-naphthyridin-1-yl)ethynyl)indolin-2-one]

IC50 [1, 8]: < 25 nM | IC50 [2, 9]: 25 to 250 nM | IC50 [3, 15]: > 250 nM | IC50 [4, 16]: > 250 nM
SMILES: CCC1(C)C(=O)Nc2cc(C#Cc3nccc4cnc(Nc5ccc(S(C)(=O)=O)cc5)cc34)ccc21 (single isomer, unassigned) [Example 388, 3-ethyl-3-methyl-6-((7-((4-(methylsulfonyl)phenyl)amino)-2,6-naphthyridin-1-yl)ethynyl)indolin-2-one]
